Results from patent EP1462117A1, “Method for in vivo detection of antipsychotic properties of dopamine D3 receptor ligands” (priority 2003, dated 2004).
Structures can show the parent of a compound that is named as a salt.

How the values were obtained:
[1] = system: D3 receptor-deficient mice (D3R^-/-); test: MK-801-induced locomotor activity in D3 receptor-deficient mice; assay type: in vivo
Method: (§1) Male Swiss mice (Iffa Credo, France), weighing 25-30 g, were housed four per cage (25 × 15 × 13 cm), on a 12 hr/12 hr light/dark cycle (lights on at 07:00 a.m.), with food and water ad libitum. […] Experiments with D3R-deficient mice were performed on male homozygous mutant mice and their wild-type littermates. […] The mice used in the present study were backcrossed 7 to 8 times.
(§2) All experiments were conducted between 2.00 p.m. and 6.00 p.m., and the animals were kept in the test room at least 1 h before recording their activity. […] Counts for forward horizontal activity were incremented each time the animal moved from one-half part of the cage to the other, corresponding to disruption of two crossed parallel beams distant of 14 cm. In time-course studies, counts were summed every 5 min.
(§3) In addition, another experiment was performed with two groups of 8 mice of each genotype, injected with either saline or haloperidol (0.05 mg/kg).
(§4) Between-group differences were analyzed with the Statistica™ software using two-way analysis of variance (ANOVA) and Least Significance Difference (LSD) post-hoc test. The analysis of data obtained with the same animals evaluated on several occasions (time-course experiments), between-within univariate or multivariate ANOVA for repeated measures were used (time being the repeated measure).

[2] = system: MK-801-treated mice; test: Resident-intruder assay in MK-801-treated mice; assay type: in vivo; details: MK-801 0.02 mg/kg/h for 7 days vs sham
Method: Male mice were housed individually or in groups of five for at least 1 week prior to minipump implantation (Day 0), delivering MK-801 (0.02 mg/kg/h) or saline (Sham), and were tested at day 7. As described in Dixon et al. (1994), a group-housed male (intruder) was placed in the home cage of the individually housed male (resident), and their behaviors were video recorded for 5 min. […] The videotaped behaviors of the resident or intruder male were individually scored, by an experimenter unaware of the treatment group, for time spent in social investigation (approaching, sniffing, grooming other mouse, and sexual behavior), and in escape behavior (actively avoiding the unfamiliar congener). The scores for each behavior were subsequently averaged for each group.
as §4, with “measure). Data from the resident-intruder assay were analyzed by analysis of variance (ANOVA), followed by a Tukey-Kramer Multiple Comparison post-hoc test.” for “measure).”

[3] = system: Swiss mice; test: MK-801 (dizocilpine)-induced and spontaneous locomotor activity, acute treatment, actimeter; assay type: in vivo
Method: as §1
Haloperidol (Janssen Pharmaceuticals, Beerse, Belgium) and clozapine (Novartis, Basel, Switzerland) were dissolved in a few drops of hydrochloric acid and distilled water, and the pH of the solution was adjusted to pH 5 to 6 using NaOH. […] The compounds were injected i.p. in a volume of 5 ml/kg.
as §2, §4
To assess simply the in vivo biological activity of the novel compound at the D3 receptor, the above described test, in which hyperlocomotion induced by low doses of dizocilpine is measured, was used.

[4] = system: Swiss mice; test: Locomotor hyperactivity induced by continuous infusion of MK-801 (osmotic minipumps); assay type: in vivo
Method: Male Swiss mice (IFFA CREDO, France), weighing 26-28 g, were housed six per cage (25 × 15 ×13 cm), on a 12 h/12 h light/dark cycle (lights on at 07:00 a.m.), with food and water freely available. Room temperature ranged from 20° to 22°C and humidity varied between 55% and 65%.
(§5) Dizocilpine, as (+)-MK-801 maleate (Sigma), dissolved in 0.9% NaCl (saline), and its respective vehicle solution, was continuously infused via osmotic minipumps (Model 1007D, Alzet Corp.). Minipumps were filled 6 h prior to implantation and placed in a sterile saline water bath at 37°C. Taking into consideration the average weight of the mice at the time of testing, and the rate of the minipump delivery (specified by the manufacturer), the MK-801 concentration was adjusted to deliver 0.01 or 0.02 mg/kg/hr (0.48 mg/kg/day). Mice were anaesthetized with chloral hydrate (400 mg/kg i.p.), and an area on the back of the mice was shaved and cleaned with 70% ethanol. A small incision was made, a pocket beneath the skin was formed and the minipump was placed inside the pocket in each mouse. The incision was sutured, and cleaned with 70% ethanol. The mice were returned in their home cage and in about 2 h they had recovered and were active.
(§6) Once the minipumps implanted (Day 0), the locomotor activity was measured for 1h, at days 2, 4 and 7 in an actimeter (Imetronic, Pessac, France).
as §4, with “measure). Data from the resident-intruder assay were analyzed by analysis of variance (ANOVA), followed by a Tukey-Kramer Multiple Comparison post-hoc test.” for “measure).”

[5] = system: D3 receptor gene-targeted (D3^-/-) mice; test: Continuous MK-801 infusion in D3 receptor gene-targeted mice, locomotor activity; assay type: in vivo
Method: as §5, with “A small incision was made, a pocket beneath the skin was formed and the minipump was placed inside the pocket in each mouse. The incision was sutured, and cleaned with 70% ethanol. The mice were returned in their home cage and in about 2 h they had recovered and were active.” left out
as §6
as §4, with “measure). Data from the resident-intruder assay were analyzed by analysis of variance (ANOVA), followed by a Tukey-Kramer Multiple Comparison post-hoc test.” for “measure).”

[6] = system: Dopamine transporter; test: Dopamine transporter binding in monkey striatum (autoradiography); design: species or system Macaca fascicularis; details: dorsolateral quadrant, rostral level
[7] = Plasma concentrations in monkeys (radioreceptor assay); assay type: in vivo; details: monkey; for time of maximal plasma concentration: in vivo; for half-life: plasma
[8] = Plasma concentrations in mice; assay type: in vivo; details: dose inhibiting dizocilpine-induced hyperlocomotion
[9] = system: wild-type (D3R^+/+) mice; test: MK-801-induced locomotor activity in wild-type mice; assay type: in vivo; details: haloperidol 0.05 mg/kg; MK-801 […]; D3R^+/+ mice
Method: Male Swiss mice (Iffa Credo, France), weighing 25-30 g, were housed four per cage (25 × 15 × 13 cm), on a 12 hr/12 hr light/dark cycle (lights on at 07:00 a.m.), with food and water ad libitum. […] Experiments with D3R-deficient mice were performed on male homozygous mutant mice and their wild-type littermates. […] Subsequently, these mice were backcrossed up to 8 times with C57BL6 mice. The mice used in the present study were backcrossed 7 to 8 times.
as §2, §3, §4

[10] = system: MPTP-intoxicated monkeys; test: Levodopa-induced dyskinesia, PD-like symptoms and locomotor activity in MPTP-intoxicated monkeys
[11] = chronic infusion through osmotic minipumps for 7 days
[12] = dyskinetic levodopa-treated MPTP-monkeys
[13] = non-dyskinetic levodopa-treated MPTP-monkeys
[14] = habituation phase, 30 min starting 5 min after injection, all doses tested
[15] = one monkey, nafadotride 1.0 mg/kg
[16] = same monkey, nafadotride 1.3 mg/kg

C[C@]12N[C@H](Cc3ccccc31)c1ccccc12 [MK-801, (+)-5-methyl-10,11-dihydro-5H-dibenzo[a,d]cyclohepten-5,10-imine maleate]
MK-801-induced hyperactivity compared with wild-type littermates ([1]; D3 receptor-deficient mice): two to three times less | stimulatory effects of MK-801, genotype comparison ([1]; MK-801 0.3 mg/kg, D3R^+/+ vs D3R^-/- mice): no significant differences | Social investigations, effect of the MK-801 treatment [2]: reduced | escape behavior, effect of the MK-801 treatment [2]: enhancement of escape behavior | locomotor activity after injection of MK-801 ([3]; MK-801 0.12 or 0.3 mg/kg i.p., after 30-min habituation): locomotor hyperactivity | response induced by MK-801 at 0.3 mg/kg relative to […] ([3]; locomotor activity, i.p.): about three | duration of locomotor hyperactivity after cessation of the drug delivery [4, 11]: at least 4 days | time at which locomotor hyperactivity first appeared [4, 11]: 7 days | hypersensitivity to methamphetamine ([5]; MK-801 0.02 mg/kg/h during 7 days, methamphetamine 1 mg/kg i.p.): completely abolished | attenuation of MK-801-induced hyperactivity compared to wild-type (D3^+/+) mice ([5]; MK-801 0.02 mg/kg/h for 7 days): ~ 50%

CN1CC=C(c2ccccc2)CC1 [MPTP, 1-methyl-4-phenyl-1,2,3,6-tetrahydropyridine]
decrease of DAT binding in Pu ([6]; MPTP-monkeys): 97.1 ± 0.3% | decrease of DAT binding in Cd ([6]; MPTP-monkeys, vs controls): 96.3 ± 0.3% | decrease of DAT binding in Cd [6, 12]: 95.7 ± 0.8% | decrease of DAT binding in Pu [6, 12]: 95.0 ± 1.3% | decrease of DAT binding in Cd [6, 13]: 96.7 ± 0.4% | decrease of DAT binding in Pu [6, 13]: 97.0 ± 0.4%

O=C(/C=C/c1ccccc1)NCCCCN1CCc2ccccc2C1 [ST 198, (E)-N-(4-[1,2,3,4-tetrahydroisoquinolin-2-yl]-butyl)-3-phenylacrylamide]
time of maximal plasma concentration [7]: 30 min | half-life [7]: ~30 min | maximal plasma concentration [8]: 3.7 ± 0.2 µM

CN1CCN(C2=Nc3cc(Cl)ccc3Nc3ccccc32)CC1 [clozapine]
spontaneous activity [3, 14]: no effect

O=C(CCCN1CCC(O)(c2ccc(Cl)cc2)CC1)c1ccc(F)cc1 [haloperidol]
MK-801-induced locomotor activity [9]: strongly inhibited | activity with MK-801 ([3]; MK-801 […], 60 min, compound i.p. 0.1, 0.3, 1 mg/kg (haloperidol 0.03, 0.1, 0.3 mg/kg), overall dose-response): strongly and dose-dependently blocked | MK-801-induced hyperactivity ([3]; compound 0.03 mg/kg i.p., MK-801 […], post-hoc vs saline): significantly reduced | MK-801-induced hyperactivity ([3]; compound 0.1 mg/kg i.p., MK-801 […], post-hoc vs saline): significantly reduced | MK-801-induced hyperactivity ([3]; compound 0.3 mg/kg i.p., MK-801 […], post-hoc vs saline): significantly reduced | spontaneous activity ([3]; compound 0.3 mg/kg i.p., post-hoc vs saline): significantly reduced | spontaneous activity [3, 14]: reduction of the spontaneous activity | MK-801-induced hyperactivity ([4]; acute administration on the 10th day after minipump implantation, clozapine 1 mg/kg, haloperidol 0.3 mg/kg, BP 897 1 mg/kg): inhibited | spontaneous hyperactivity ([4]; subchronic treatment twice a day for 4.5 days from day 6, BP 897 1 mg/kg, haloperidol 0.3 mg/kg, recorded at least 6 hours after last administration): reversed | methamphetamine-induced hyperactivity ([4]; subchronic treatment twice a day for 4.5 days from day 6, methamphetamine 1 mg/kg, recorded at least 6 hours after last administration): reversed

N[C@@H](Cc1ccc(O)c(O)c1)C(=O)O [levodopa]
parkinsonian score ([10]; dyskinetic monkeys under levodopa, parkinsonism corresponds to a score above 6): 0.2 ± 0.1 | LID score ([10]; five out of nine levodopa-treated monkeys (severe LID), maximum of 4, levodopa 47 to 60 mg/kg twice daily for 6-8 months): 3.4 ± 0.1 | LID score ([10]; the four remaining levodopa-treated animals): < 0.4

CCCCN1CCCC1CNC(=O)c1cc(C#N)c2ccccc2c1OC (stereo not shown) [nafadotride, N[(n-butyl-2-pyrrolidinyl)methyl]-1-methoxy-4-cyano naphtalene-2-carboxamide]
time of maximal plasma concentration [7]: 60 min | half-life [7]: ~50 min | locomotor response to MK-801 ([1]; compound 1 mg/kg, MK-801 […], D3R^-/- mice): no longer able to inhibit | on-time duration ([10]; from activity counts, threshold at 30% of the maximal activity, over 5 hr): markedly reduced | LID score [10, 15]: 0.5 | PD-like symptoms score [10, 15]: 0 | score of LID [10, 16]: 0.5 | score of PD-like symptoms [10, 16]: 4 | locomotor activity (activity counts) ([10]; with levodopa): strongly reduced | LID ([10]; with levodopa, at first active dose, nafadotride on 3 out of 4 monkeys, ST 198 30-90 min after administration): reduction of LID similar to that obtained with BP 897
